{"source": "patent US9403842B2", "about": "“Prasugrel in non-crystalline form and pharmaceutical composition thereof” (ratiopharm GmbH, priority 2009, dated 2016)", "assay": "pH-dependent degradation", "format": "physicochemical", "conditions": "pH values of <3, after just 2 hours", "description": "At pH values of <3, degradation of more than 1% is observed after just 2 hours. This restricts the possible excipients used in the production of pharmaceutical formulations.", "data": [{"smiles": "CC(=O)Oc1cc2c(s1)CCN(C(C(=O)C1CC1)c1ccccc1F)C2", "note": "(stereo not drawn) [prasugrel, 2-acetoxy-5-(α-cyclopropylcarbonyl-2-fluorobenzyl)-4,5,6,7-tetrahydrothieno[3,2-c]pyridine]", "values": [{"measurement": "degradation", "value": "more than 1%"}]}]}
